Positions of bridges follow the written chain, without caps; N, C: chain ends. Non-standard residues stand in square brackets, D forms with d. Residues, ends and D or L forms follow the SMILES beside them. ξ: configuration not given here. *: point of attachment. Me3N+(CH2)2O(CH2)2O(CH2)2CO = C[N+](C)(C)CCOCCOCCC(=O)*; Trp(7-Me) = Cc1cccc2c(C[C@H](N)C(=O)O)c[nH]c12; 2Nal = N[C@@H](Cc1ccc2ccccc2c1)C(=O)O; 3Pal = N[C@@H](Cc1cccnc1)C(=O)O; ξThr(3R) = C[C@@H](O)C(N)C(=O)O; Lys(Me) = CNCCCC[C@H](N)C(=O)O; Pen = CC(C)(S)[C@H](N)C(=O)O; Thp = NC1(C(=O)O)CCOCC1; X3 = C[N+](C)(C)CCCCC*; Sar = CNCC(=O)O
What was measured:
IL-23R = molecular target: T1, IL-23R (Homo sapiens, UniProt Q5VWK5); assay: IL23R Reporter Assay; assay type: cell-based; conditions: HEK293 cells containing IL-23R, IL-12RP1 and STAT-inducible firefly luciferase reporter; 10 ng/mL IL-23 (EC90); 5 h at 37° C.; read-out: IL23R Reporter Assay
T1 construct: host or cells: HEK293
T1 sequence (Q5VWK5 24-629): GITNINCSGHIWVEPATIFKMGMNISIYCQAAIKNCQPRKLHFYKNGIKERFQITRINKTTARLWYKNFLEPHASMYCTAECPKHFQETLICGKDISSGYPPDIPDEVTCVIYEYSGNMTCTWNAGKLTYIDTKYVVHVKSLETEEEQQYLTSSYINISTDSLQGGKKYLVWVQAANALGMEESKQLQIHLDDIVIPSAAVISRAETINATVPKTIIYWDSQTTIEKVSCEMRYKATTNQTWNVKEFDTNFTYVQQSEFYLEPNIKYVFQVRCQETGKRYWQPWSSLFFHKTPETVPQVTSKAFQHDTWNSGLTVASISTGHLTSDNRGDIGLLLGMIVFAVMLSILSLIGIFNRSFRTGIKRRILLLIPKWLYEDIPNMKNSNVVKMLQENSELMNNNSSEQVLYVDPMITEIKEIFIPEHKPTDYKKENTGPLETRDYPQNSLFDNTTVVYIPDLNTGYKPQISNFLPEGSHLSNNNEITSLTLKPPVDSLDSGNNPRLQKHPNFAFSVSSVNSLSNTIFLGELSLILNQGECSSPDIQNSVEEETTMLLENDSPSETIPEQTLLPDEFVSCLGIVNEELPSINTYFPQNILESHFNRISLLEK

[1] = Exposed Polar Surface Area (EPSA); assay type: physicochemical; conditions: SFC on Chirex 3014 column; sample 1 mM DMSO stock; read-out: EPSA
Procedure, shortened: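 EPSA, in Å^2, is read from SFC retention time through a linear relationship established with eight calibration standards. Separation uses a Chirex 3014 stationary phase, 35 °C, 14 MPa back pressure, and a 5–60% methanol/ammonium formate modifier gradient in CO2.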

Compound	IC50 (IL-23R)	EPSA [1]
CC(=O)N(C)CCCC[C@H](NC(=O)[C@H](C)NC(=O)[C@H](Cc1ccc2ccccc2c1)NC(=O)[C@H](Cc1ccc(OCCCCC[N+](C)(C)C)cc1)NC(=O)[C@H]1NC(=O)[C@H](CCCCN(C)C(C)=O)NC(=O)[C@H](Cc2c[nH]c3c(C)cccc23)NC(=O)C([C@@H](C)O)NC(=O)[C@H](CC(=O)N(C)C)NC(=O)[C@@H](NC(=O)CCOCCOCC[N+](C)(C)C)C(C)(C)SSC1(C)C)C(=O)N[C@@H](CC(N)=O)C(=O)N[C@@H](Cc1cccnc1)C(=O)N(C)CC(=O)N(C)C (stereo partly drawn) [compound 488, cPEG3aCO-Pen(3)-N(N(Me)2)-T-7MeW-K(NMeAc)-Pen(3)-TMAPf-2Nal-A-K(NMeAc)-N-3Pya-Sar-CON(Me)2] ({Me3N+(CH2)2O(CH2)2O(CH2)2CO}-[Pen]D(NMe2)[ξThr(3R)][Trp(7-Me)][Lys(Me)](Ac)[Pen]Y(X3)[2Nal]A[Lys(Me)](Ac)N[3Pal][Sar]-NMe2; disulfide 1-6)	5.7 nM	165 A^2
CC(=O)N(C)CCCC[C@H](NC(=O)C1(NC(=O)[C@H](Cc2ccc3ccccc3c2)NC(=O)[C@H](Cc2ccc(OCCCCC[N+](C)(C)C)cc2)NC(=O)[C@H]2NC(=O)[C@H](CC(C)C)NC(=O)[C@H](Cc3c[nH]c4c(C)cccc34)NC(=O)[C@H]([C@@H](C)O)NC(=O)[C@H](CC(=O)N(C)C)NC(=O)[C@@H](NC(=O)CCOCCOCC[N+](C)(C)C)C(C)(C)SSC2(C)C)CCOCC1)C(=O)N[C@@H](CC(N)=O)C(=O)N[C@@H](Cc1cccnc1)C(=O)N(C)CC(=O)N(C)C [compound 489, cPEG3aCO-Pen(3)-N(N(Me)2)-T-7MeW-L-Pen(3)-TMAPF-2Nal-THP-K(NMeAc)-N-3Pya-Sar-CON(Me)2] ({Me3N+(CH2)2O(CH2)2O(CH2)2CO}-[Pen]D(NMe2)T[Trp(7-Me)]L[Pen]Y(X3)[2Nal][Thp][Lys(Me)](Ac)N[3Pal][Sar]-NMe2; disulfide 1-6)	3.7 nM	164 A^2
CC(=O)NCCCC[C@@H]1NC(=O)[C@H](Cc2c[nH]c3c(C)cccc23)NC(=O)[C@H]([C@@H](C)O)NC(=O)[C@H](CC(N)=O)NC(=O)[C@@H](NC(=O)COCCOCCNC(=O)COCCOCCNC(=O)CCCc2ccc(I)cc2)C(C)(C)SSC(C)(C)[C@@H](C(=O)N[C@@H](Cc2ccc(OCCCCC[N+](C)(C)C)cc2)C(=O)N[C@@H](Cc2ccc3ccccc3c2)C(=O)NC2(C(=O)N[C@@H](CCCCNC(C)=O)C(=O)N[C@@H](CC(N)=O)C(=O)N[C@@H](Cc3cccnc3)C(=O)N(C)CC(N)=O)CCOCC2)NC1=O [compound 491, IPBPEG2PEG2CO-Pen(3)-N-T-7MeW-K(Ac)-Pen(3)-TMAPF-2Nal-THP-K(Ac)-N-3Pya-Sar-CONH2]	8.3 nM	168 A^2
CC(=O)N(C)CCCC[C@H](NC(=O)C1(NC(=O)[C@H](Cc2ccc3ccccc3c2)NC(=O)[C@H](Cc2ccc(OCCCCC[N+](C)(C)C)cc2)NC(=O)[C@H]2NC(=O)[C@H](C)NC(=O)[C@H](Cc3c[nH]c4c(C)cccc34)NC(=O)[C@H]([C@@H](C)O)NC(=O)[C@H](CC(=O)N(C)C)NC(=O)[C@@H](NC(=O)CCOCCOCC[N+](C)(C)C)C(C)(C)SSC2(C)C)CCOCC1)C(=O)N[C@@H](CC(N)=O)C(=O)N[C@@H](Cc1cccnc1)C(=O)N(C)CC(=O)N(C)C [compound 492, cPEG3aCO-Pen(3)-N(N(Me)2)-T-7MeW-A-Pen(3)-TMAPF-2Nal-THP-K(NMeAc)-N-3Pya-Sar-CON(Me)2] ({Me3N+(CH2)2O(CH2)2O(CH2)2CO}-[Pen]D(NMe2)T[Trp(7-Me)]A[Pen]Y(X3)[2Nal][Thp][Lys(Me)](Ac)N[3Pal][Sar]-NMe2; disulfide 1-6)	6.4 nM	165 A^2
CC(=O)N(C)CCCC[C@@H]1NC(=O)[C@H](Cc2c[nH]c3c(C)cccc23)NC(=O)[C@H](C)NC(=O)[C@H](CC(=O)N(C)C)NC(=O)[C@@H](NC(=O)CCOCCOCC[N+](C)(C)C)C(C)(C)SSC(C)(C)[C@@H](C(=O)N[C@@H](Cc2ccc(OCCCCC[N+](C)(C)C)cc2)C(=O)N[C@@H](Cc2ccc3ccccc3c2)C(=O)NC2(C(=O)N[C@@H](CCCCN(C)C(C)=O)C(=O)N[C@@H](CC(N)=O)C(=O)N[C@@H](Cc3cccnc3)C(=O)N(C)CC(=O)N(C)C)CCOCC2)NC1=O [compound 494, cPEG3aCO-Pen(3)-N(N(Me)2)-A-7MeW-K(NMeAc)-Pen(3)-TMAPF-2Nal-THP-K(NMeAc)-N-3Pya-Sar-CON(Me)2] ({Me3N+(CH2)2O(CH2)2O(CH2)2CO}-[Pen]D(NMe2)A[Trp(7-Me)][Lys(Me)](Ac)[Pen]Y(X3)[2Nal][Thp][Lys(Me)](Ac)N[3Pal][Sar]-NMe2; disulfide 1-6)	12 nM	133 A^2
CC(=O)N(C)CCCC[C@@H]1NC(=O)[C@H](Cc2c[nH]c3c(C)cccc23)NC(=O)[C@H]([C@@H](C)O)NC(=O)[C@H](C)NC(=O)[C@@H](NC(=O)CCOCCOCC[N+](C)(C)C)C(C)(C)SSC(C)(C)[C@@H](C(=O)N[C@@H](Cc2ccc(OCCCCC[N+](C)(C)C)cc2)C(=O)N[C@@H](Cc2ccc3ccccc3c2)C(=O)NC2(C(=O)N[C@@H](CCCCN(C)C(C)=O)C(=O)N[C@@H](CC(N)=O)C(=O)N[C@@H](Cc3cccnc3)C(=O)N(C)CC(=O)N(C)C)CCOCC2)NC1=O [compound 496, cPEG3aCO-Pen(3)-a-T-7MeW-K(NMeAc)-Pen(3)-TMAPF-2Nal-THP-K(NMeAc)-N-3Pya-Sar-CON(Me)2] ({Me3N+(CH2)2O(CH2)2O(CH2)2CO}-[Pen]AT[Trp(7-Me)][Lys(Me)](Ac)[Pen]Y(X3)[2Nal][Thp][Lys(Me)](Ac)N[3Pal][Sar]-NMe2; disulfide 1-6)	6 nM	161 A^2
CC(=O)N(C)CCCC[C@@H]1NC(=O)[C@H](Cc2c[nH]c3c(C)cccc23)NC(=O)[C@H]([C@@H](C)O)NC(=O)[C@H](CC(=O)N(C)C)NC(=O)[C@@H](NC(=O)CCOCCOCC[N+](C)(C)C)C(C)(C)SSC(C)(C)[C@@H](C(=O)N[C@@H](Cc2ccc(OCCCCC[N+](C)(C)C)cc2)C(=O)N[C@@H](Cc2c[nH]c3ccccc23)C(=O)NC2(C(=O)N[C@@H](CCCCN(C)C(C)=O)C(=O)N[C@@H](CC(N)=O)C(=O)N[C@@H](Cc3cccnc3)C(=O)N(C)CC(=O)N(C)C)CCOCC2)NC1=O [compound 497, cPEG3aCO-Pen(3)-N(N(Me)2)-T-7MeW-K(NMeAc)-Pen(3)-TMApF-W-THP-K(NMeAc)-N-3Pya-Sar-CON(Me)2] ({Me3N+(CH2)2O(CH2)2O(CH2)2CO}-[Pen]D(NMe2)T[Trp(7-Me)][Lys(Me)](Ac)[Pen]Y(X3)W[Thp][Lys(Me)](Ac)N[3Pal][Sar]-NMe2; disulfide 1-6)	80 nM	162 A^2
CC(=O)N(C)CCCC[C@@H]1NC(=O)[C@H](Cc2c[nH]c3c(C)cccc23)NC(=O)[C@H]([C@@H](C)O)NC(=O)[C@H](CC(=O)N(C)C)NC(=O)[C@@H](NC(=O)CCOCCOCC[N+](C)(C)C)C(C)(C)SSC(C)(C)[C@@H](C(=O)N[C@@H](Cc2ccc(OCCCCC[N+](C)(C)C)cc2)C(=O)N[C@@H](Cc2ccccc2)C(=O)NC2(C(=O)N[C@@H](CCCCN(C)C(C)=O)C(=O)N[C@@H](CC(N)=O)C(=O)N[C@@H](Cc3cccnc3)C(=O)N(C)CC(=O)N(C)C)CCOCC2)NC1=O [compound 498, cPEG3aCO-Pen(3)-N(N(Me)2)-T-7MeW-K(NMeAc)-Pen(3)-TMApF-F-THP-K(NMeAc)-N-3Pya-Sar-CON(Me)2] ({Me3N+(CH2)2O(CH2)2O(CH2)2CO}-[Pen]D(NMe2)T[Trp(7-Me)][Lys(Me)](Ac)[Pen]Y(X3)F[Thp][Lys(Me)](Ac)N[3Pal][Sar]-NMe2; disulfide 1-6)	27 nM	162 A^2

From US20260022143A1, “Cyclic Peptide Inhibitors of IL-23” (JANSSEN PHARMACEUTICA NV, priority 2022, published 2026)
